Assay results from article PMC8944544, “IPA-3: An Inhibitor of Diadenylate Cyclase of Streptococcus suis with Potent Antimicrobial Activity” (Antibiotics, 2022).

Tests used:
[1] = target: T1, diadenylate cyclase of Streptococcus suis (ssDacA) (Streptococcus suis, UniProt A0A0H3N0L3); assay: Kinase-Glo ATP consumption assay with purified enzyme ([…] ssDacA); confirmed by HPLC of c-di-AMP; type: biochemical
T1 construct: gene dacA; C-terminal catalytic domain (residues 99 to 283), His-tagged, from S. suis SC19

[2] = target: T1, diadenylate cyclase of Streptococcus suis (ssDacA); assay: HPLC quantification of product formed by purified enzyme; type: biochemical

T1 sequence (A0A0H3N0L3 entry or part of it): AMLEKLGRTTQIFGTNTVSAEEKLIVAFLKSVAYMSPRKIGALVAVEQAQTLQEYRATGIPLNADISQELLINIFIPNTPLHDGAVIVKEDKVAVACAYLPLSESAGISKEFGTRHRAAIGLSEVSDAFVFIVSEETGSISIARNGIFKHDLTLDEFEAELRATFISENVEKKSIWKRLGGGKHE

| Compound | IC50 [1] | HPLC quantification of product formed by purified enzyme [2] |
| --- | --- | --- |
| Oc1ccc2ccccc2c1SSc1c(O)ccc2ccccc12 [IPA-3, 2,2′-dihydroxy-1,1′-dinapthyldisulfide] | 38.2 µM |  |
| Nc1ncnc2c1ncn2[C@@H]1O[C@@H]2COP(=O)(O)O[C@H]3[C@@H](O)[C@H](n4cnc5c(N)ncnc54)O[C@@H]3COP(=O)(O)O[C@H]2[C@H]1O [c-di-AMP] |  | the catalytic product c-di-AMP in the reaction was detected in the presence and absence of IPA-3 in vitro |
